Data reported in patent publication US7883893B2, “Method to assay test substances” (priority 2005, dated 2011).
“And” between values parts separate entries of the source, which are not always exact repeats. Equal values may be shown once. “Also recorded” adds a separate entry of the source.

Tests used:
Type in all cases: cell-based
[1] = system: Kir2.1; experiment: Rb+ efflux of 293 cells stably expressing Kir2.1 incubated with BFA without MTSET treatment; conditions: BFA 3 h, absence of MTSET treatment (data not shown)
Protocol: (§1) Rb^+ Flux Assay and Atomic Absorption Spectrometry. All assays shown were performed at room temperature in poly(L-lysine) (0.1 mg/ml)-coated 24-well microplates. For experiments with transiently transfected cells, ˜1×10^5 cells were seeded in each well the day before transfection (0.3 μg of DNA per well). Sodium butyrate at 5 mM was added 6-8 h after transfection. The assays were performed 24 h after transfection. HEK 293 cells stably expressing either Kir2.1 or Kir2.1Y channel were seeded with a cell density of 2×10^5 cells per well. To enhance expression, 5 mM sodium butyrate was added 4-6 h after seeding. Cells then were cultured continuously for 16-20 h before experiments.
(§2) Rb^+ Efflux. […] The Rb^+ concentration in each sample was analyzed using the ICR 8000. Rb^+ efflux (%) was determined as: 100%×[Rb^+]sup/([Rb^+]sup+[Rb^+]lysate) where [Rb^+]sup represents the Rb^+ concentration in the supernatant, and [Rb^+]lysate represents the Rb^+ concentration in the cell lysate.
In the case of Kir2.1, we observed reproducible ˜30% reduction over the same period of incubation (data not shown). […] For Kir2.1Y, the combination of quantitative elimination of surface channel activity by MTSET, the >90% activity recovery, and little detectable reduction of Rb^+ efflux in the presence of BFA then would predict a 2-fold increase of protein signal on the cell surface. […]

[2] = system: Kir2.1Y channel; experiment: FRAC: recovery of Kir2.1Y channel activity (Rb+ efflux) after MTSET chemobleaching
Description: To assay the transit time of nacently surfaced receptor, we first modify, inhibit, or change (pulse) accessible functional molecules on the cell surface and then monitor the recovery of the original function/activity at subsequent time points (chase). One thus may determine the time required to populate the cell surface with newly inserted cell surface molecules (FIG. 1). Designing versions of this assay involves consideration of at least four factors. (i) A functional assay preferably monitors activity predominantly or only from molecules on the cell surface. […] (iii) The activity detection should be relatively short compared with the time required to repopulate the cell surface with functional molecules. (iv) The pulse should be rapid, quantitative, and optionally irreversible, thereby allowing detection of the activity contributed only by the newly arrived (or newly activated) proteins on the cell surface. These are considerations only, rather than mandatory properties. Deviation from one of these considerations may involve compensation by another. Furthermore, one of ordinary skill in the art will appreciate that treatment of cell surfaces can be restricted to a desirable area, such as the apical surface of epithelial cells. Thus, spatially restricted populations of cell surface receptors can be affected.
Rb^+ Flux Assay and Atomic Absorption Spectrometry. All assays shown were performed at room temperature in poly(L-lysine) (0.1 mg/ml)-coated 24-well microplates. For experiments with transiently transfected cells, ˜1×10^5 cells were seeded in each well the day before transfection (0.3 μg of DNA per well). Sodium butyrate at 5 mM was added 6-8 h after transfection. The assays were performed 24 h after transfection. […]
as §2, with “lysate. […]” for “lysate.”

[3] = system: Kir2.1Y channel; experiment: Rb+ efflux of 293 cells stably expressing Kir2.1Y incubated with BFA without MTSET treatment
Protocol: as §1
Rb^+ Efflux. To load Rb^+ into cells, we incubated cells in 0.5 ml per well 50/50 DMEM/F12 complete growth medium containing ˜5 mM RbCl at 37° C. for 3-4 h. Cells then were washed twice quickly with 1 ml per well non-Rb^+ medium to remove residual Rb^+. […] The Rb^+ concentration in each sample was analyzed using the ICR 8000. Rb^+ efflux (%) was determined as: 100%×[Rb^+]sup/([Rb^+]sup+[Rb^+]lysate) where [Rb^+]sup represents the Rb^+ concentration in the supernatant, and [Rb^+]lysate represents the Rb^+ concentration in the cell lysate. […]

[4] = system: Kir2.1Y channel; experiment: Rb+ influx assay of HEK 293 cells transiently transfected with Kir2.1Y, with MTSET treatment; conditions: MTSET treatment before the assay (2.5 mM per FIG. 2 legend)
Protocol: as §1
Rb^+ Influx. To perform the assay, cells first were incubated in 50/50 DMEM/F12 complete growth medium containing 5 mM RbCl for the indicated time periods before the medium was quickly aspirated. Cells then were washed twice quickly with non-Rb^+ DMEM/F12 medium and lysed with 0.5 ml of 0.1% SDS per well. The Rb^+ concentration in cell lysates was measured by atomic absorption spectrophotometry (ICR8000, Aurora Biomed, Vancouver), according to the manufacturer's user manual.
(§3) To monitor the specificity of the Rb^+ assay and the effectiveness of Rb^+ detection by atomic absorption spectrometry (19), we measured the Rb^+ uptake signals of transiently transfected cells at different times of incubation. […]

[5] = biological target: T1, wild-type Kir2.1 (Homo sapiens, UniProt P63252); experiment: Rb+ flux assay of wild-type Kir2.1 with MTSET
T1 sequence (P63252 1-427): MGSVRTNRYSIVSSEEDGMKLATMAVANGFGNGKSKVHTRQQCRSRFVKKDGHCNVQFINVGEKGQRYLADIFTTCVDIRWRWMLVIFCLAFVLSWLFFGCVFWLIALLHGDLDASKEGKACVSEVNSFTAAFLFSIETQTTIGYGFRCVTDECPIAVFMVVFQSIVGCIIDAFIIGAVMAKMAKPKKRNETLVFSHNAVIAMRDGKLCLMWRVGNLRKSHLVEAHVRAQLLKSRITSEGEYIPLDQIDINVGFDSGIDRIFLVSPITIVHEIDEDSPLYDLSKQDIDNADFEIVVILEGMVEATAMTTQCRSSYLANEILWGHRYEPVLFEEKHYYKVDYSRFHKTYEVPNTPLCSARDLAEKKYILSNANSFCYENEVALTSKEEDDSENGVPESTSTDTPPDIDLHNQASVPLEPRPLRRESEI
Description: (§4) Earlier reports using electrophysiological recording have shown that membrane-nonpermeable MTS reagents such as MTSET reduce or abolish the current of Kir2.1 by covalently modifying the reduced form of cysteine residues already present in the channel protein or introduced by site-directed mutagenesis (18). It is not known whether or to what extent the modifications by MTS reagents will affect channel activity measured by a Rb^+ flux assay. We tested several cysteine positions of Kir2.1 mutants using MTSET, a positively charged cysteinyl sulfhydryl-specific reagent.

[6] = system: Kir2.1Y channel; experiment: Rb+ efflux assay of 293 cells stably expressing Kir2.1Y, with MTSET treatment; conditions: stable Kir2.1Y line, FIG. 2c
Protocol: as §1
Rb^+ Efflux. To load Rb^+ into cells, we incubated cells in 0.5 ml per well 50/50 DMEM/F12 complete growth medium containing ˜5 mM RbCl at 37° C. for 3-4 h. […] The Rb^+ concentration in each sample was analyzed using the ICR 8000. Rb^+ efflux (%) was determined as: 100%×[Rb^+]sup/([Rb^+]sup+[Rb^+]lysate) where [Rb^+]sup represents the Rb^+ concentration in the supernatant, and [Rb^+]lysate represents the Rb^+ concentration in the cell lysate.
as §3

[7] = system: Kir2.1 mutation of C149; experiment: Electrophysiological recording and Rb+ assay of Kir2.1 C149 mutant with MTSET; conditions: electrophysiological recording and Rb+ assay (data not shown)
Description: as §4

In the case of `C[C@H]1CCC/C=C/[C@@H]2C[C@H](O)C[C@H]2[C@H](O)/C=C/C(=O)O1` [BFA, Brefeldin A], the “reduction of Rb+ efflux activity” value [1] is reported as roughly 30%, the activity recovery ([2]; 1 μM BFA at 37° C. for 3 h, added immediately after 5-min MTSET treatment (FIG. 5a)) is reported as < 20% and 20% and the “BFA concentration at which the effect reaches a plateau” value ([2]; recovery at 3 h, 37° C., FIG. 5b) is reported as greater than 0.6 µM. For the same compound, the “sensitivity of surface channel activity to BFA concentrations” value ([3]; absence of MTSET treatment, 3-h incubation, FIG. 5b) was “no sensitivity” and the “effect on activity of channels already on the cell surface (Rb+ efflux)” value ([3]; without MTSET treatment, 3-h incubation with BFA) was “did not affect the activity; also recorded: did not result in a detectable reduction”.

In the case of `C[N+](C)(C)CCSS(C)(=O)=O.[Br-]` [MTSET, [2-(trimethylammonium)ethyl]methanethiosulfonate bromide], the “specific Rb+ uptake signal abolished” value [4] is reported as greater than 80%, the “effect of MTSET on channel activity” value [5] is reported as “quantitatively nullified” and the “Rb+ efflux signal after MTSET treatment” value [6] is reported as “only background signals were observed”. The “sensitivity to MTSET” value [7] was “loss of sensitivity”.

Compound `C[C@@H]1C[C@@H]([C@H](O)CC2CC(=O)NC(=O)C2)C(=O)[C@@H](C)C1` [cycloheximide] has an activity recovery ([2]; cycloheximide in FRAC experiments (data not shown)) of 40%.
